According to ChEMBL document CHEMBL5385847, “Design, synthesis and biological evaluation of a new class of 7H-pyrrolo[2,3-d]pyrimidine derivatives as Mps1 inhibitors for the treatment of breast cancer” (Eur J Med Chem, 2023):

Key:
[1] = target: Tyrosine-protein kinase Yes (Homo sapiens) (UniProt P07947); assay: Inhibition of human Yes at 0.1 uM by KINOMEscan assay relative to control
[2] = Toxicity in BALB/C mouse xenografted with mouse 4T1-Luc cells assessed as histological change in liver at 30 to 60 mg/kg, po qd treated for 15 days by H and E staining based analysis; format: organism-based; conditions: in vivo, 360 h, dose 30-60 mg/kg, time 15 day
[3] = Antitumor activity against mouse 4T1-Luc cells xenografted in BALB/C mouse assessed as reduction in mean tumor weight at 60 mg/kg, po qd treated for 15 days (reference value: 3.56 g); format: functional; conditions: time 15 day
[4] = target: Hepatocyte growth factor receptor (Homo sapiens) (UniProt P08581); assay: Inhibition of human Met at 1 uM by KINOMEscan assay relative to control
[5] = Toxicity in BALB/C mouse xenografted with mouse 4T1-Luc cells assessed as histological change in heart at 30 to 60 mg/kg, po qd treated for 15 days by H and E staining based analysis; format: organism-based; conditions: in vivo, 360 h, dose 30-60 mg/kg, time 15 day
MCF7 = assay: Induction of cell cycle arrest in human MCF7 cells at G2/M phase incubated for 24 hrs by Annexin V/PI staining based flow cytometry; format: functional; conditions: dose <= 5.0 µM

Chain of Tyrosine-protein kinase Yes (Homo sapiens) (P07947 2-543 limits assumed): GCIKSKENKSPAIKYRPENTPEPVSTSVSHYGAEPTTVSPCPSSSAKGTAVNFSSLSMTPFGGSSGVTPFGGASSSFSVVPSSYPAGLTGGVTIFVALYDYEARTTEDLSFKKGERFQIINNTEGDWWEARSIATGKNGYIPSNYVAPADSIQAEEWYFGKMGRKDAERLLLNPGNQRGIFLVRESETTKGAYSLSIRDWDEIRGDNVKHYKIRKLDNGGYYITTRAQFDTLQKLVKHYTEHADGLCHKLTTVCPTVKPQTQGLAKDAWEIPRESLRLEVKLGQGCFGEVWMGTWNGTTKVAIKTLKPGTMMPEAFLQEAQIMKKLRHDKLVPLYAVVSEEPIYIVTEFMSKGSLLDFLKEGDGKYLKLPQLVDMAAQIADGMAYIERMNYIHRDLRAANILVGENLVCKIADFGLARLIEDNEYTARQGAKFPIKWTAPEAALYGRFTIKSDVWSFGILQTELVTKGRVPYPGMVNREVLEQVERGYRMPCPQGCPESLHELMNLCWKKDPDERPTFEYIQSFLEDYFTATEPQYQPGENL
Chain of Hepatocyte growth factor receptor (Homo sapiens) (P08581 whole entry): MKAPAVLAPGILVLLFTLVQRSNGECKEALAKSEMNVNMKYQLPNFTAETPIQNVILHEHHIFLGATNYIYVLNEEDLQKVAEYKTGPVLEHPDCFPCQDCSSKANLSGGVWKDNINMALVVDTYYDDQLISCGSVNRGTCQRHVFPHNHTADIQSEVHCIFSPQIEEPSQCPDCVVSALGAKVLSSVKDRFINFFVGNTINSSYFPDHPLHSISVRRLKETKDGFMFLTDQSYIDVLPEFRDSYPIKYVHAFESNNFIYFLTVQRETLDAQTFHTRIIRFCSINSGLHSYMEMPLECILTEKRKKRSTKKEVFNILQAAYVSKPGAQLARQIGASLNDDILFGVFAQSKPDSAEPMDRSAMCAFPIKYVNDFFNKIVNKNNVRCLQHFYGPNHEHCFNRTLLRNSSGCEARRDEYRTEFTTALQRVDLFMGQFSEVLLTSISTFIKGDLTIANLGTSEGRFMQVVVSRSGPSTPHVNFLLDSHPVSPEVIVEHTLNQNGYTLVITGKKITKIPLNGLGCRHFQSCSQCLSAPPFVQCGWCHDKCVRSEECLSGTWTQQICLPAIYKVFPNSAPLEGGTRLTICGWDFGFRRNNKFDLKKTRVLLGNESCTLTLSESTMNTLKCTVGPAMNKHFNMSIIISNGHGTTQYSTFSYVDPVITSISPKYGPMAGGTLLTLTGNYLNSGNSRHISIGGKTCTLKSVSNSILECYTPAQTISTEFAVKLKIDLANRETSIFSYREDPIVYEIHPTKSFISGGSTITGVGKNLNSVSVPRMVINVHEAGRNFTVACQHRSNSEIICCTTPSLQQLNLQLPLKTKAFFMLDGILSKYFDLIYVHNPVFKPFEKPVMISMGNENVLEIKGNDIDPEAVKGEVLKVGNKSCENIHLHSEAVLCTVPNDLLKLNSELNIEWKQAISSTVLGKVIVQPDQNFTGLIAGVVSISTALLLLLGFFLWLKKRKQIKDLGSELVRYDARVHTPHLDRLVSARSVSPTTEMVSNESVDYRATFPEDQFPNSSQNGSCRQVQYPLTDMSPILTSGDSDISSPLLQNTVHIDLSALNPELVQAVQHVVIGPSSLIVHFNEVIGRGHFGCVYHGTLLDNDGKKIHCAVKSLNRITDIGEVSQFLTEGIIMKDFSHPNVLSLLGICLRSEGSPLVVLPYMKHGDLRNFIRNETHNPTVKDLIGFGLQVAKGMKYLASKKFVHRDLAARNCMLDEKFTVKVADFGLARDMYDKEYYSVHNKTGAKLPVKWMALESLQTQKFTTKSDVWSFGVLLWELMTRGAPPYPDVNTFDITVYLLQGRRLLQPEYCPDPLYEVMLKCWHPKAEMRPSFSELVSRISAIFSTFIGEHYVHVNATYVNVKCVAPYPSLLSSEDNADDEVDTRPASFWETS

inhibition [1]: 80% | inhibition [4]: 100%
Structure (SMILES): CN1CCN(c2ccc(Nc3nc(-n4nc(N)c5ccccc54)c4cc[nH]c4n3)cc2)CC1
Activity [2]: Non-Toxic | Activity [3]: 0.97 g | Activity [5]: Non-Toxic | Activity (MCF7): Dose-Dependent Effect
